Molecules are shown by their SMILES.

The nature of data set [1]: Physical and processing (bulk) properties of crystalline forms. Format: physicochemical. As to conditions: TABLE II, crystalline forms of aztreonam.
For data set [2] the following is noted: compared with α-form or simple salts of the compound; storage prior to conversion to β-form.
Data set [3] in a line: Intrinsic dissolution rate of crystalline forms. As to conditions: TABLE II, crystalline forms of aztreonam. Format: physicochemical.
The conditions of data set [4]: as described for Ser. No. 282,636; cited from earlier work.

Consider `C[C@H]1[C@H](NC(=O)/C(=N\OC(C)(C)C(=O)O)c2csc(N)n2)C(=O)N1S(=O)(=O)O` [δ-Form, [3S-[3α(Z),4β]]-3-[[(2-amino-4-thiazolyl)[(1-carboxy-1-methylethoxy)imino]acetyl]amino]-4-methyl-2-oxo-1-azetidinesulfonic acid], for which, in data set [1], the Density entry is reported as “high”, the Flowability entry was “good” and the “Surface Area” value is recorded as “low”. In addition, in data set [2], the Shelf life result was “greater than that of the α-form, or for that matter simple salts of the compound”. The “Intrinsic Dissolution Rate” value in data set [3] is on record as “fast”.
As to `C[C@H]1[C@H](NC(=O)/C(=N\OC(C)(C)C(=O)O)c2csc(N)n2)C(=O)N1S(=O)(=O)O` [β-Form, [3S-[3α(Z),4β]]-3-[[(2-amino-4-thiazolyl)-[(1-carboxy-1-methylethoxy)imino]acetyl]amino]-4-methyl-2-oxo-1-azetidinesulfonic acid], in data set [1], the Density entry is “high”, the Flowability result is listed as “good” and the “Surface Area” value is on record as “low”. For the same compound, the “Intrinsic Dissolution Rate” value in data set [3] is “fast”. Besides, the “Hygroscopicity (background, earlier application)” value in data set [4] is reported as “substantially non-hygroscopic”.
For the compound `C[C@H]1[C@H](NC(=O)/C(=N\OC(C)(C)C(=O)O)c2csc(N)n2)C(=O)N1S(=O)(=O)O` [γ-Form], in data set [1], the Density entry is recorded as “low”, the Flowability result is given as “poor” and the “Surface Area” value is “high”. In data set [3], the “Intrinsic Dissolution Rate” value is given as “fast”.
Taken in the same sequence, the figures for `C[C@H]1[C@H](NC(=O)/C(=N\OC(C)(C)C(=O)O)c2csc(N)n2)C(=O)N1S(=O)(=O)O` [α-Form, [3S-[3α(Z)4β]]-3-[[(2-amino-4-thiazolyl)[(1-carboxy-1-methylethoxy)imino]acetyl]amino]-4-methyl-2-oxo-1-azetidinesulfonic acid] were “low”, “poor”, “high” and “slow”.

(Values after patent US4826973A, “Delta form of aztreonam and preparation thereof” (priority 1985, dated 1989).)
